Reference: patent publication US20220151989A1, “LIPOIC ACID PRODRUG” (SANTEN PHARMACEUTICAL CO., LTD., priority 2019, published 2022)
Where “and” joins values, the source holds several entries; their conditions need not be identical. Identical values can stand only once.

Columns and labels:
[1] = test system: lens elasticity; experiment: Pharmacological Test-4: lens elasticity, once-daily instillation for 2 weeks; assay type: in vivo, C57BL/6J mice; conditions: for Lens elasticity improvement: once per day for 14 days, 8-month-old mice
Procedure: The effect of once-daily instillation of Compound 1 for 2 weeks on the lens elasticity was examined.
Compound 1 was stirred with the addition of Vehicle A to give a 0.3% (w/v) emulsion, and the emulsion was diluted with the diluent to give a 0.1% (w/v) emulsion. Further, the resulting 0.1% (w/v) emulsion was diluted with the diluent to give a 0.03% (w/v) emulsion. Further, the resulting 0.03% (w/v) emulsion was diluted with the diluent to give a 0.01% (w/v) emulsion.
EV06 was sonicated with the addition of Vehicle A to give a 1.5% (w/v) solution, which was used for comparison to Compound 1 sample.
1) Each test sample (2.5 μL/eye) was instilled into the right eye of 8-month-old C57BL/6J mice with a Pipetman once per day (around 9:00) for 14 days. 2) After the final instillation, the mice were euthanized by carbon dioxide inhalation, and then the eyeballs were extracted and rinsed with Hank's balanced salt solution (HESS). 3) The sclera near the optic nerve was cut with a razor, the lens was removed through the incision, and the removed lens was immersed in HESS. 4) The lens was placed on a glass slide, and an all-in-one fluorescence microscope BZ-9000 (Keyence) was used to capture an image of the lens (Image a). 5) Next, one cover glass (Corning^(registered trade mark) 22×22 mm Square) was placed on the lens, and an image in which the thickness of the lens changed due to the weight was similarly captured (Image b). 6) A change in the lens diameter was calculated from the following Equation 1 wherein the lens diameter of Image a is subtracted from the lens diameter of Image b. Then, the lens elasticity improvement of each sample group compared with the vehicle control group was calculated from Equation 2 described below. The mean value of the vehicle control group was based on 5 eyes, the mean value of each of the sample groups of compound 1 and EV06 was based on 10 eyes.
Change in lens diameter=Lens diameter in Image b of each test sample−Lens diameter in Image a of each test sample (Equation 1)
Lens elasticity improvement of each sample group=Mean change in lens diameter of each Test sample group−Mean change in lens diameter of Vehicle control group (Equation 2)

[2] = test system: anterior segment of the eye; experiment: Ocular Irritation Test-1: modified Draize test and slit lamp examination; assay type: in vivo, Japanese White rabbit; design: key to Irritation Score of anterior segment of the eye: Palpebral conjunctival edema / Irritation Score of anterior segment of the eye: Bulbar conjunctival hyperemia / Irritation Score of anterior segment of the eye: Hyperemia of nictitating membrane / Irritation Score of anterior segment of the eye: Discharge / Slit lamp observation / Irritation Score of anterior segment of the eye: Flare of palpebral conjunctiva: +0.5: very slight; +1: slight; +2: moderate; +3: severe; —: No noteworthy findings; conditions: for slit lamp examination / irritation in anterior segment of the eye: 0.03% and 0.3% eye drops; for irritation in anterior segment of the eye: modified Draize test; for Irritation Score of anterior segment of the eye: Bulbar conjunctival hyperemia / Irritation Score of anterior segment of the eye: Discharge / Irritation Score of anterior segment of the eye: Flare of palpebral conjunctiva / Irritation Score of anterior segment of the eye: Hyperemia of nictitating membrane / Irritation Score of anterior segment of the eye: Palpebral conjunctival edema / Slit lamp observation: 50 μL/eye ten times at 30 minute intervals, 1 hour after last instillation
Procedure: 0.03% (w/v) and 0.3% (w/v) Compound 1 eye drops, and 0.03% (w/v) and 0.3% (w/v) Compound 3 eye drops were prepared in the same manner as Preparation of Test sample in Pharmacological test-2. Vehicle A was used for a vehicle group. 0.03% (w/v) and 0.3% (w/v) Compound 1 eye drops, 0.03% (w/v) and 0.3% (w/v) Compound 3 eye drops, and the vehicle were each instilled into the left eye of a Japanese White rabbit at a dose of 50 μL/eye with pipette ten times at 30 minute intervals. One hour after the final instillation, ocular irritation of anterior segment of the eye was evaluated according to the modified Draize test, and a slit lamp examination was performed. The contralateral eye was untreated. The ocular irritation of anterior segment of the eye was scored according to the following criteria: +0.5: very slight; +1: slight; +2: moderate; +3: severe

[3] = test system: anterior segment of the eye; experiment: Ocular Irritation Test-2: McDonald-Shadduck method, lens observation, histopathological examination; assay type: in vivo, Japanese White rabbit; design: key to Irritation Score of anterior segment of the eye: Discharge / Irritation Score of anterior segment of the eye: Anterior chamber flare / Irritation Score of anterior segment of the eye: Light reflex / Irritation Score of anterior segment of the eye: Iris / Irritation Score of anterior segment of the eye: Corneal opacity / Irritation Score of anterior segment of the eye: Angiogenesis / Irritation Score of anterior segment of the eye: Corneal epithelial disorder / Lens / Histopathological examination of the eye / Irritation Score of anterior segment of the eye: Conjunctival hyperemia / Irritation Score of anterior segment of the eye: Conjunctival edema: +0.5: very slight; +1: slight; +2: moderate; +3: severe; —: No noteworthy findings; conditions: for Histopathological examination of the eye / Irritation Score of anterior segment of the eye: Angiogenesis / Irritation Score of anterior segment of the eye: Anterior chamber flare / Irritation Score of anterior segment of the eye: Conjunctival edema / Irritation Score of anterior segment of the eye: Conjunctival hyperemia / Irritation Score of anterior segment of the eye: Corneal epithelial disorder / Irritation Score of anterior segment of the eye: Corneal opacity / Irritation Score of anterior segment of the eye: Discharge / Irritation Score of anterior segment of the eye: Iris / Irritation Score of anterior segment of the eye: Light reflex / Lens: 50 μL/eye twice per day for 2 weeks
Procedure: Compound 1 was stirred with the addition of Vehicle C to give a 0.3% (w/v) solution, and the resulting solution was diluted with Vehicle C to give a 0.1% (w/v) solution. Further, the resulting 0.1% (w/v) solution was diluted with. Vehicle C to give a 0.03% (w/v) solution.
0.03% (w/v), 0.1% (w/v), and 0.3% (w/v) Compound 1 eye drops were each instilled into the left eye of a Japanese White rabbit at a dose of 50 μL/eye with pipette twice per day at a 6-hour interval for 2 weeks. One hour after the final instillation, ocular irritation of anterior segment of the eye was evaluated using a slit lamp according to the McDonald-Shadduck method, and the lens was observed. At the end of the treatment period, histopathological examination of the eye was performed. The contralateral eye was untreated.
The ocular irritation of anterior segment of the eye was scored according to the following criteria:
+1: slight; +2: moderate; +3: severe.

## C[N+](C)(C)CCOC(=O)CCCC[C@@H]1CCSS1.[Cl-] [EV06, Lipoic acid choline ester, reference compound]
[1]; 1.5% (w/v) solution in Vehicle A
  Lens elasticity improvement: 5.8 μm

## CC(C)=CCOC(=O)CCCC[C@@H]1CCSS1 [Compound 1, 3-Methyl-2-buten-1-yl (R)-5-(1,2-dithiolan-3-yl)pentanoate]
[2]
  slit lamp examination: No abnormalities were observed
  irritation in anterior segment of the eye: No irritation was observed
[2]; 0.03% eye drop
  Irritation Score of anterior segment of the eye: Bulbar conjunctival hyperemia: —
  Irritation Score of anterior segment of the eye: Discharge: —
  Irritation Score of anterior segment of the eye: Flare of palpebral conjunctiva: —
  Irritation Score of anterior segment of the eye: Hyperemia of nictitating membrane: —
  Irritation Score of anterior segment of the eye: Palpebral conjunctival edema: —
  Slit lamp observation: —
[2]; 0.3% eye drop
  Irritation Score of anterior segment of the eye: Bulbar conjunctival hyperemia: —
  Irritation Score of anterior segment of the eye: Discharge: —
  Irritation Score of anterior segment of the eye: Flare of palpebral conjunctiva: —
  Irritation Score of anterior segment of the eye: Hyperemia of nictitating membrane: —
  Irritation Score of anterior segment of the eye: Palpebral conjunctival edema: —
  Slit lamp observation: —
[1]; 0.01% (w/v) emulsion
  Lens elasticity improvement: 12.2 μm
[1]; 0.03% (w/v) emulsion
  Lens elasticity improvement: 33.8 μm
[1]; 0.03%, 0.1% and 0.3% sample groups, instilled once-daily
  lens elasticity improvement compared with 1.5% EV06 group: excellent results compared to 1.5% EV06 group
[1]; 0.1% (w/v) emulsion
  Lens elasticity improvement: 34.1 μm
[1]; 0.3% (w/v) emulsion
  Lens elasticity improvement: 39.8 μm
[3]; 0.03% eye drop
  Histopathological examination of the eye: —
  Irritation Score of anterior segment of the eye: Angiogenesis: —
  Irritation Score of anterior segment of the eye: Anterior chamber flare: —
  Irritation Score of anterior segment of the eye: Conjunctival edema: —
  Irritation Score of anterior segment of the eye: Conjunctival hyperemia: —
  Irritation Score of anterior segment of the eye: Corneal epithelial disorder: —
  Irritation Score of anterior segment of the eye: Corneal opacity: —
  Irritation Score of anterior segment of the eye: Discharge: —
  Irritation Score of anterior segment of the eye: Iris: —
  Irritation Score of anterior segment of the eye: Light reflex: —
  Lens: —
[3]; 0.03%, 0.1% and 0.3% eye drops, twice per day for 2 weeks
  ocular irritation: No ocular irritation was observed
[3]; 0.1% eye drop
  Histopathological examination of the eye: —
  Irritation Score of anterior segment of the eye: Angiogenesis: —
  Irritation Score of anterior segment of the eye: Anterior chamber flare: —
  Irritation Score of anterior segment of the eye: Conjunctival edema: —
  Irritation Score of anterior segment of the eye: Conjunctival hyperemia: —
  Irritation Score of anterior segment of the eye: Corneal epithelial disorder: —
  Irritation Score of anterior segment of the eye: Corneal opacity: —
  Irritation Score of anterior segment of the eye: Discharge: —
  Irritation Score of anterior segment of the eye: Iris: —
  Irritation Score of anterior segment of the eye: Light reflex: —
  Lens: —
[3]; 0.3% eye drop
  Histopathological examination of the eye: —
  Irritation Score of anterior segment of the eye: Angiogenesis: —
  Irritation Score of anterior segment of the eye: Anterior chamber flare: —
  Irritation Score of anterior segment of the eye: Conjunctival edema: —
  Irritation Score of anterior segment of the eye: Conjunctival hyperemia: —
  Irritation Score of anterior segment of the eye: Corneal epithelial disorder: —
  Irritation Score of anterior segment of the eye: Corneal opacity: —
  Irritation Score of anterior segment of the eye: Discharge: —
  Irritation Score of anterior segment of the eye: Iris: —
  Irritation Score of anterior segment of the eye: Light reflex: —
  Lens: —

## O=C(CCCC[C@@H]1CCSS1)OCCN1CCN(CCO)CC1 [Compound 3]
[2]
  slit lamp examination: No abnormalities were observed
  irritation in anterior segment of the eye: low
[2]; 0.03% eye drop
  Irritation Score of anterior segment of the eye: Bulbar conjunctival hyperemia: +1
  Irritation Score of anterior segment of the eye: Discharge: +1
  Irritation Score of anterior segment of the eye: Flare of palpebral conjunctiva: +1
  Irritation Score of anterior segment of the eye: Hyperemia of nictitating membrane: +1
  Irritation Score of anterior segment of the eye: Palpebral conjunctival edema: +0.5
  Slit lamp observation: —
[2]; 0.3% eye drop
  Irritation Score of anterior segment of the eye: Bulbar conjunctival hyperemia: +1 and +2
  Irritation Score of anterior segment of the eye: Discharge: +1
  Irritation Score of anterior segment of the eye: Flare of palpebral conjunctiva: +1
  Irritation Score of anterior segment of the eye: Hyperemia of nictitating membrane: +1
  Irritation Score of anterior segment of the eye: Palpebral conjunctival edema: +1 and +0.5
  Slit lamp observation: —
